System: β-galactosidase in tumor sections
Assay: IHC analysis of β-galactosidase staining in intraliver tumors after i.v. dosing of Lipid-Based Particles
Assay type: in vivo, Scid female mice
Conditions: intraliver tumor model, Scid mice, tail vein (i.v) injection
Experimental: The animal studies were carried out in accordance with internal Institutional Animal Care and Use Committee (IACUC) guidelines at Abbott Laboratories. Scid female mice at 6 to 8 weeks of age were obtained from Charles River Laboratory and used for […] tumor models. Mouse livers were exposed by vertical incision on mouse abdomens and the tumor cells were directly injected into the livers. The incision was closed by suture and wound clips. All cell lines used for creating xenograft tumors were subjected to the IMPACT profile I test (18 agents) at the University of Missouri Research Animal Diagnostic and Investigative Laboratory, and all cell lines were found negative for the 18 infectious agents tested. Tumor cells were suspended in a 1:1 mixture of S-MEM (Invitrogen, Carlsbad, Calif.) and matrigel (BD Bioscience, San Jose, Calif.) and inoculated at 1×10E6 cells per animal. Treatments were started 3 4 weeks after tumor inoculation. Formulated or unformulated siRNAs were administrated via tail vein (i.v) injection. IHC was carried out as previously described [Li, L., et al., Evaluating hypoxia-inducible factor-1alpha as a cancer therapeutic target via inducible RNA interference in vivo. Cancer Res, 2005. 65(16): p. 7249-58]. Briefly, tumors were excised, cut into pieces of less than 3 mm in thickness and immediately fixed in buffered formalin solution with neutral pH (Sigma, St. Louis, Mo.). The formalin-fixed and paraffin-embedded tumor sections were then used for staining. The mouse anti-β-galactosidase mAb (Promega, Madison, Wis.) was used to detect β-galactosidase in tumor sections. […] IHC images were acquired using the Nikon TE2000 inverted microscope. The β-galactosidase staining was evaluated by 2 people independently based on the scoring system listed below. The average of the score was calculated for each tumor.

C[C@H]1c2cccc(O)c2C(=O)C2=C(O)[C@]3(O)C(=O)C(C(N)=O)=C(O)[C@@H](N(C)C)[C@@H]3[C@@H](O)[C@@H]21 [Doxycycline]
In vivo response: β-galactosidase IHC staining score (column 1): +++ (there was 80% of the section with strong straining)
In vivo response: β-galactosidase IHC staining score (column 2): +++ (there was 80% of the section with strong straining)
In vivo response: β-galactosidase IHC staining score (column 3): +++ (there was 80% of the section with strong straining)
In vivo response: β-galactosidase IHC staining score (column 4): +++ (there was 80% of the section with strong straining)
In vivo response: β-galactosidase IHC staining score (column 5): +++ (there was 80% of the section with strong straining)
In vivo response: β-galactosidase IHC staining score (column 6): +++ (there was 80% of the section with strong straining)
